Like-named read-outs stand apart in the source and are kept apart here. Marks after values point to notes of the source that are not given here.
Tests used:
[1] = system: CYP2C19-expressing TK6 cells; assay: TK and HPRT gene mutation assays in CYP2C19-expressing TK6 cells; type: cell-based, human; details: 4-h treatment
hamster V79 cells = details: without exogenous activation; ref Brambilla et al., 1989; cited from earlier work
TK6 cells [2] = details: up to 10 mM; 1% rat liver S9; ref Liviac et al., 2011; cited from earlier work
TK6 cells [3] = assay: TK and HPRT gene mutation assays in TK6 cells with hamster liver S9
TK6 cells [4] = details: 2% Aroclor-1254-induced rat liver S9; ref Bernacki et al., 2016; cited from earlier work
TK6 cells [5] = assay: In vitro micronucleus assay in TK6 cells; details: for %MN frequency with hamster liver S9: 4-h (2% S9) and 24-h (0.4% S9) treatments
TA98 = details: for BMD50L / BMD50U: CES 0.5
[6] = system: TK6 cells transduced with CYP3A4; details: up to 10 μM; 24 h
[7] = system: TK6 cells transduced with CYP2E1; details: up to 10 μM; 24 h
[8] = system: TK6 cells transduced with CYP2A6; details: up to 10 μM; 24 h
HepG2 cells = details: 24 h without exogenous metabolism, additional 16 h
[9] = system: CYP2C19-expressing HepG2 cells; details: 24 h without exogenous metabolism, additional 16 h
2D HepaRG cells = details: 24 h; 2D cultures
primary rat hepatocytes = details: 10 μM to 100 μM; 20-h exposure; ref Robbiano et al., 1991; cited from earlier work
TA1535 = details: for BMD50L / BMD50U: CES 0.5
[10] = system: TK6 cells transduced with CYP2C19; details: 24 h without exogenous metabolism
[11] = system: primary human hepatocytes; details: 10 μM to 100 μM; 20-h exposure; ref Robbiano et al., 1991; cited from earlier work
[12] = system: CYP2C19-expressing TK6 cells; details: 4- and 24-h exposures
[13] = system: tester strains TA1535, TA1537, TA1538, TA92, TA98, and TA100; details: maximum concentration 1.4 μmol/plate (404 μg/plate); with and without Aroclor 1254-induced rat liver S9; ref Raisfeld-Danse and Chen, 1983; cited from earlier work
TK6 cells [14] = assay: In vitro MultiFlow DNA damage assay in TK6 cells
[15] = system: TK6 cells transduced with CYP2D6; details: up to 10 μM; 24 h
3D HepaRG spheroids = details: 24 h; 3D cultures
[16] = system: TK6 cells transduced with CYP2C8; details: up to 10 μM; 24 h
[17] = system: tester strains TA98 or TA100; details: 1 mg/plate; Aroclor 1254-induced rat liver S9; ref Zhang et al., 1983; cited from earlier work
TA100 = details: for BMD50L / BMD50U: CES 0.5
tester strains = details: preliminary study; these concentrations and above
[18] = system: hepatocytes of Sprague-Dawley rats; details: single dose of 1000 mg/kg; ref Martelli et al., 1994; cited from earlier work
TA1537 = details: 0–200 μg/plate
WP2 uvrA (pKM101) = details: 0–200 μg/plate
[19] = 100 μM, 4-h treatment, TK6 cells with 1% hamster liver S9
[20] = TA98, 10% hamster liver S9, preincubation 30 min
[21] = TA98, 10% hamster liver S9, preincubation 60 min
[22] = TA98, 10% rat liver S9, preincubation 30 min
[23] = TA98, 10% rat liver S9, preincubation 60 min
[24] = TA98, 30% hamster liver S9, preincubation 30 min
[25] = TA98, 30% hamster liver S9, preincubation 60 min
[26] = TA98, 30% rat liver S9, preincubation 30 min
[27] = TA98, 30% rat liver S9, preincubation 60 min
[28] = TA98, without S9, preincubation 30 min
[29] = TA98, without S9, preincubation 60 min
[30] = 0–200 μg/plate, S9 activation required
[31] = 10% hamster liver S9, preincubation 30 min
[32] = 10% hamster liver S9, preincubation 60 min
[33] = 10% rat liver S9, preincubation 30 min
[34] = 10% rat liver S9, preincubation 60 min
[35] = 30% hamster liver S9, preincubation 30 min
[36] = 30% hamster liver S9, preincubation 60 min
[37] = 30% rat liver S9, preincubation 30 min
[38] = 30% rat liver S9, preincubation 60 min
[39] = without S9, preincubation 30 min
[40] = without S9, preincubation 60 min
[41] = 50 μM, 4-h treatment, TK6 cells with 1% hamster liver S9
[42] = 200 μM, 4-h treatment, TK6 cells with 1% hamster liver S9
[43] = 300 μM, 4-h treatment, TK6 cells with 1% hamster liver S9

O=[N+]([O-])c1cc[n+]([O-])c2ccccc12 [4NQO, reference compound]
HPRT gene MF ([1]; 0.1 μg/mL (positive control)): 34.1^c × 10^−6 | Relative survival (%) ([1]; 0.1 μg/mL (positive control)): 59.9% | TK gene MF ([1]; 0.1 μg/mL (positive control)): 69.2^c × 10^−6

CN(N=O)C1=Nc2ccc(Cl)cc2C(c2ccccc2)=[N+]([O-])C1 [N-nitroso chlordiazepoxide]
HPRT mutations (hamster V79 cells): induce concentration-dependent HPRT mutations

CCN(CC)N=O [NDEA, N-nitrosodiethylamine, reference compound]
MN formation (TK6 cells [2]): did not induce MN formation | HPRT gene MF (TK6 cells [3]; [19]): 23.1^c × 10^−6 | Relative survival (%) (TK6 cells [3]; [19]): 66.9% | TK gene MF (TK6 cells [3]; [19]): 44.2^c × 10^−6 | Genotoxic or cytotoxic responses (TK6 cells [4]): failed to biotransform NDEA to produce any genotoxic or cytotoxic responses | %MN frequency with hamster liver S9 (TK6 cells [5]): induced MN

CC(C)N(CC(O)COc1cccc2ccccc12)N=O (stereo not drawn) [NNP, N-nitroso propranolol]
Mutagenic response in the Ames test (overall) (TA98; TA98, 0–200 μg/plate, preincubation method): mutagenic both in the presence and absence of S9 | BMD50L (TA98; [20]): 5.7 μg/plate | BMD50U (TA98; [20]): 10.1 μg/plate | BMD50L (TA98; [21]): 6.9 μg/plate | BMD50U (TA98; [21]): 14.5 μg/plate | BMD50L (TA98; [22]): 7.9 μg/plate | BMD50U (TA98; [22]): 13.0 μg/plate | BMD50L (TA98; [23]): 7.2 μg/plate | BMD50U (TA98; [23]): 11.5 μg/plate | BMD50L (TA98; [24]): 12.8 μg/plate | BMD50U (TA98; [24]): 21.4 μg/plate | BMD50L (TA98; [25]): 18.3 μg/plate | BMD50U (TA98; [25]): 30.3 μg/plate | BMD50L (TA98; [26]): 16.2 μg/plate | BMD50U (TA98; [26]): 27.0 μg/plate | BMD50L (TA98; [27]): 22.4 μg/plate | BMD50U (TA98; [27]): 36.8 μg/plate | BMD50L (TA98; [28]): 9.8 μg/plate | BMD50U (TA98; [28]): 24.7 μg/plate | BMD50L (TA98; [29]): 9.3 μg/plate | BMD50U (TA98; [29]): 15.4 μg/plate | Solvent effect on mutagenicity in TA98 (TA98; dissolved in acetone, methanol, or DMSO): very similar mutational responses | Effect on %MN and cytotoxicity [6]: no effect | Effect on %MN and cytotoxicity [7]: no effect | Effect on %MN and cytotoxicity [8]: no effect | Cytotoxicity or MN formation (HepG2 cells): did not cause any cytotoxicity or MN formation | %MN [9]: concentration-dependent increase | Lowest observed adverse effect level (LOAEL) for %MN [9]: 2 µM | Lowest concentration that induced positive responses (Comet) (2D HepaRG cells): 50 µM | DNA fragmentation and unscheduled DNA synthesis (UDS) (primary rat hepatocytes): concentration-dependent increase | Mutagenic response in the Ames test (overall) (TA1535; [30]): positive mutagenic responses | BMD50L (TA1535; [31]): 0.9 μg/plate | BMD50U (TA1535; [31]): 3.4 μg/plate | BMD50L (TA1535; [32]): 2.1 μg/plate | BMD50U (TA1535; [32]): 6.5 μg/plate | BMD50L (TA1535; [33]): 36.1 μg/plate | BMD50U (TA1535; [33]): 108.0 μg/plate | BMD50L (TA1535; [34]): Negative | BMD50L (TA1535; [35]): 2.3 μg/plate | BMD50U (TA1535; [35]): 7.7 μg/plate | BMD50L (TA1535; [36]): 2.5 μg/plate | BMD50U (TA1535; [36]): 7.1 μg/plate | BMD50L (TA1535; [37]): Negative | BMD50L (TA1535; [38]): Negative | BMD50L (TA1535; [39]): Negative | BMD50L (TA1535; [40]): Negative | HPRT gene MF ([1]; 0.0625 μM, no S9): 4.5^c × 10^−6 | TK gene MF ([1]; 0.0625 μM, no S9): 13.2 × 10^−6 | HPRT gene MF ([1]; 0.125 μM, no S9): 6.5^c × 10^−6 | TK gene MF ([1]; 0.125 μM, no S9): 18.6^c × 10^−6 | HPRT gene MF ([1]; 0.5 μM, no S9): 23.0^c × 10^−6 | TK gene MF ([1]; 0.5 μM, no S9): 28.5^c × 10^−6 | Lowest concentration causing a statistically significant increase in %MN [10]: 0.0625 µM | DNA fragmentation and unscheduled DNA synthesis (UDS) [11]: concentration-dependent increase | Nuclear P53 [12]: only caused increases in nuclear P53 after 24 h | Mutagenicity in the Ames test [13]: negative | γH2A.X (TK6 cells [14]; 4-h treatment with 2% hamster S9): concentration-dependent increase | γH2A.X (TK6 cells [14]; 24-h treatment with 0.4% hamster S9, 10 μM (highest concentration, cytotoxic)): level decreased | γH2A.X (TK6 cells [14]; 24-h treatment with 0.4% hamster S9, 2.5 and 5.0 μM): induced increases | Phosphorylation of histone H3 (aneugen marker) (TK6 cells [14]; data not shown): did not increase | γH2A.X fluorescence (TK6 cells [14]; without S9): did not induce any increase | γH2A.X compared to the vehicle control (TK6 cells [14]; without S9, 100 μM): statistically significant decrease | HPRT gene MF (TK6 cells [3]; [41]): 4.2^c × 10^−6 | TK gene MF (TK6 cells [3]; [41]): 15.5^c × 10^−6 | HPRT gene MF (TK6 cells [3]; [19]): 7.0^c × 10^−6 | TK gene MF (TK6 cells [3]; [19]): 21.8^c × 10^−6 | HPRT gene MF (TK6 cells [3]; [42]): 3.2^c × 10^−6 | TK gene MF (TK6 cells [3]; [42]): 17.8^c × 10^−6 | HPRT gene MF (TK6 cells [3]; [43]): 2.6^c × 10^−6 | TK gene MF (TK6 cells [3]; [43]): 16.5^c × 10^−6 | Concentrations producing overt cytotoxicity (TK6 cells [3]; preliminary concentration range-finding study, 1% hamster liver S9, 4 h): ≥ 400 µM | Effect on %MN and cytotoxicity [15]: no effect | Lowest concentration that induced positive responses (Comet) (3D HepaRG spheroids): 25 µM | Effect on %MN and cytotoxicity [16]: no effect | Mutations in the Ames test [17]: did not induce mutations | Mutagenic response in the Ames test (overall) (TA100; [30]): positive mutagenic responses | BMD50L (TA100; [31]): 5.9 μg/plate | BMD50U (TA100; [31]): 21.1 μg/plate | BMD50L (TA100; [32]): 14.1 μg/plate | BMD50U (TA100; [32]): 34.4 μg/plate | BMD50L (TA100; [33]): Negative | BMD50L (TA100; [34]): Negative | BMD50L (TA100; [35]): 7.3 μg/plate | BMD50U (TA100; [35]): 19.9 μg/plate | BMD50L (TA100; [36]): 24.7 μg/plate | BMD50U (TA100; [36]): 62.2 μg/plate | BMD50L (TA100; [37]): Negative | BMD50L (TA100; [38]): Negative | BMD50L (TA100; [39]): Negative | BMD50L (TA100; [40]): Negative | Concentrations with considerable toxicity in the Ames test (tester strains): 100–500 μg/plate | Micronucleus (MN) formation in hepatocytes [18]: induced micronucleus (MN) formation | %MN frequency with hamster liver S9 (TK6 cells [5]): concentration-dependent increase | Cytotoxicity after metabolic activation by hamster liver S9 (TK6 cells [5]; 4-h and 24-h treatments): displayed cytotoxicity | Effect on %MN and cytotoxicity (TK6 cells [5]; non-CYP-transduced TK6 cells, up to 10 μM, 24 h): no effect | MN formation over vehicle controls (TK6 cells [5]; without exogenous metabolism, up to 100 μM, 24 h): did not result in any increase in MN formation | Mutagenic response in the Ames test (overall) (TA1537): negative | Mutagenic response in the Ames test (overall) (WP2 uvrA (pKM101)): negative

From article PMC11393638 (Regulatory toxicology and pharmacology : RTP, 2023)
